Here are results for nine molecules from patent US9115142B2, “Heterocycle-substituted piperazino-dihydrothienopyrimidines” (Boehringer Ingelheim International GmbH, priority 2007, dated 2015).

Structures can show the parent of a compound that is named as a salt.

Sequence of PDE4B (Q07343 whole entry, species assumed): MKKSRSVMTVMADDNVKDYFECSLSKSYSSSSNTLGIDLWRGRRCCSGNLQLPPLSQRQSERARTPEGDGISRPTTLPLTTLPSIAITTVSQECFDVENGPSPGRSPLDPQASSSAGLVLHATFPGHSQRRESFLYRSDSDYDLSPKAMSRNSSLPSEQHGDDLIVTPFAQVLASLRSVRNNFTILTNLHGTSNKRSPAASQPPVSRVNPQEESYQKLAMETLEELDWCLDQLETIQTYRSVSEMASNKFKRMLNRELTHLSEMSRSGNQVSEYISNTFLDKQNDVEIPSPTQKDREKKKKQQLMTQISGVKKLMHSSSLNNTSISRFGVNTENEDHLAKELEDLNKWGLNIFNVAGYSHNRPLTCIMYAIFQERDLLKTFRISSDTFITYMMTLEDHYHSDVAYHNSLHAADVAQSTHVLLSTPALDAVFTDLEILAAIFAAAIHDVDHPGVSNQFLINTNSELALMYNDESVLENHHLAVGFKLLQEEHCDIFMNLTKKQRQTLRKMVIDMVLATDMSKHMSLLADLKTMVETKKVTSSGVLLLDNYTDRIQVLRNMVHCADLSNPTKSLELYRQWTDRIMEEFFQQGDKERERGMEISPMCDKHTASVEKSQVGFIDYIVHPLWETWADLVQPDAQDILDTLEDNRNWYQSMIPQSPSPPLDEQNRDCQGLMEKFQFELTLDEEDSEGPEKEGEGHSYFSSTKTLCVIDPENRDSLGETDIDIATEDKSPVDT

The assay addresses PDE4B (Homo sapiens, UniProt Q07343). As to the kind of experiment: Scintillation Proximity Assay (SPA) of PDE4B enzymatic activity ([H3]-cAMP cleavage). In kind it is biochemical. As to conditions: test substance 1 μM; one-hour incubation with [H3]-cAMP and PDE4B at 30° C. On the procedure:
The Scintillation Proximity Assay (SPA) (GE Healthcare, No. TRKQ7090) was carried out by using the different affinities of cyclic 3″-5″-adenosinemonophosphate (cAMP, low affinity) and linear 5″-adenosinemonophosphate (AMP, high affinity) for yttrium silicate scintillator beads. The cAMP specific phosphodiesterase (PDE) PDE4B cleaves the 3″-phosphoester bond of tritium-labelled [H3]-cAMP to form [H3]-5″-AMP. This [H3]-AMP accumulates on the scintillator beads because of its higher affinity for them and causes scintillation events (flashes of light) which are measured in a Wallac Microbeta Scintillation Counter.
The experiment starts with a one-hour incubation of [H3]-cAMP with the PDE4B enzyme in assay buffer at 30° C., in each case once with the Example substance to be tested (in a concentration of 1 μM) and once without the Example substance to be tested.
After this incubation, the reaction is stopped by the addition of the beads. The beads have an opportunity to settle in the next 45 minutes, then the measurement is carried out in the Scintillation Counter. If the substance is capable of inhibiting the enzymatic activity of the PDE4B, less [H3]-AMP is produced during the incubation phase and fewer scintillation events can be measured.
In turn, `COc1cccc2c1nc(N1CCN(c3nc4c(c(Nc5cccc(F)c5)n3)[S+]([O-])CC4)CC1)n2C` (stereo not drawn) [Example 108, (3-fluorophenyl)-{2-[4-(4-methoxy-1-methyl-1H-benzimidazol-2-yl)-piperazin-1-yl]-5-oxo-6,7-dihydro-5H-5λ^4-thieno[3,2-d]pyrimidin-4-yl}-amine trifluoroacetate] yielded an inhibition at 1 µM of 95%.

For the molecule `CCN1CCc2ncc(N3CCN(c4nc5c(c(Nc6cccc(F)c6)n4)[S+]([O-])CC5)CC3)nc2CC1` (stereo not drawn) [Example 109, {2-[4-(7-ethyl-6,7,8,9-tetrahydro-5H-pyrazino[2,3-d]azepin-2-yl)-piperazin-1-yl]-5-oxo-6,7-dihydro-5H-5λ^4-thieno[3,2-d]pyrimidin-4-yl}-(3-fluorophenyl)-amine trifluoroacetate], the inhibition at 1 µM is 96%.

Consider `[O-][S+]1CCc2nc(N3CCN(c4ccncn4)CC3)nc(Nc3cccc(F)c3)c21` (stereo not drawn) [Example 113, (3-fluorophenyl)-[5-oxo-2-(4-pyrimidin-4-yl-piperazin-1-yl)-6,7-dihydro-5H-5λ^4-thieno[3,2-d]pyrimidin-4-yl]-amine trifluoroacetate], for which the inhibition at 1 µM stood at 96%. For `[O-][S+]1CCc2nc(N3CCN(c4ccnc(O)c4)CC3)nc(Nc3cccc(F)c3)c21` (stereo not drawn) [Example 114, 4-{4-[4-(3-fluorophenylamino)-5-oxo-6,7-dihydro-5H-5λ^4-thieno[3,2-d]pyrimidin-2-yl]-piperazin-1-yl}-pyridin-2-ol], the inhibition at 1 µM was 96%.

As to `[O-][S+]1CCc2nc(N3CCN(c4ccncc4)CC3)nc(Nc3cccc(F)c3)c21` (stereo not drawn) [Example 117, (3-fluorophenyl)-[5-oxo-2-(4-pyridin-4-yl-piperazin-1-yl)-6,7-dihydro-5H-5λ^4-thieno[3,2-d]pyrimidin-4-yl]-amine], the inhibition at 1 µM turned out to be 96%. In the case of `[O-][S+]1CCc2nc(N3CCN(c4nc(-c5ccc(F)cc5)cs4)CC3)nc(Nc3cccc(F)c3)c21` (stereo not drawn) [Example 142, (3-fluorophenyl)-(2-{4-[4-(4-fluorophenyl)-thiazol-2-yl]-piperazin-1-yl}-5-oxo-6,7-dihydro-5H-5λ^4-thieno[3,2-d]pyrimidin-4-yl)-amine] it was 95%; in that of `[O-][S+]1CCc2nc(N3CCN(c4noc5ccccc45)CC3)nc(Nc3cccc(F)c3)c21` (stereo not drawn) [Example 144, [2-(4-benzo[d]isoxazol-3-yl-piperazin-1-yl)-5-oxo-6,7-dihydro-5H-5λ^4-thieno[3,2-d]pyrimidin-4-yl]-(3-fluorophenyl)-amine], 96%. In the case of `CC(C)[C@H](CO)Nc1nc(N2CCN(c3nc(-c4ccc(F)cc4)cs3)CC2)nc2c1[S+]([O-])CC2` (stereo partly drawn) [Example 148, (R)-2-(2-{4-[4-(4-fluorophenyl)-thiazol-2-yl]-piperazin-1-yl}-5-oxo-6,7-dihydro-5H-5λ^4-thieno[3,2-d]pyrimidin-4-ylamino)-3-m ethylbutan-1-ol] it was 95%; in that of `CC(C)[C@H](CO)Nc1nc(N2CCN(c3noc4ccccc34)CC2)nc2c1[S+]([O-])CC2` (stereo partly drawn) [Example 150, (R)-2-[2-(4-benzo[d]isoxazol-3-yl-piperazin-1-yl)-5-oxo-6,7-dihydro-5H-5λ^4-thieno[3,2-d]pyrimidin-4-ylamino]-3-methylbutan-1-ol], 95%.
